Reference: ChEMBL document CHEMBL1137830, “Synthesis and evaluation of tacrine-E2020 hybrids as acetylcholinesterase inhibitors for the treatment of Alzheimer's disease” (Bioorg Med Chem Lett, 2004)
pIC50: −log10 of the molar value.

What was measured:
Acetylcholinesterase = target: T1, Acetylcholinesterase (Rattus norvegicus, UniProt P37136)
T1 sequence (P37136 whole entry): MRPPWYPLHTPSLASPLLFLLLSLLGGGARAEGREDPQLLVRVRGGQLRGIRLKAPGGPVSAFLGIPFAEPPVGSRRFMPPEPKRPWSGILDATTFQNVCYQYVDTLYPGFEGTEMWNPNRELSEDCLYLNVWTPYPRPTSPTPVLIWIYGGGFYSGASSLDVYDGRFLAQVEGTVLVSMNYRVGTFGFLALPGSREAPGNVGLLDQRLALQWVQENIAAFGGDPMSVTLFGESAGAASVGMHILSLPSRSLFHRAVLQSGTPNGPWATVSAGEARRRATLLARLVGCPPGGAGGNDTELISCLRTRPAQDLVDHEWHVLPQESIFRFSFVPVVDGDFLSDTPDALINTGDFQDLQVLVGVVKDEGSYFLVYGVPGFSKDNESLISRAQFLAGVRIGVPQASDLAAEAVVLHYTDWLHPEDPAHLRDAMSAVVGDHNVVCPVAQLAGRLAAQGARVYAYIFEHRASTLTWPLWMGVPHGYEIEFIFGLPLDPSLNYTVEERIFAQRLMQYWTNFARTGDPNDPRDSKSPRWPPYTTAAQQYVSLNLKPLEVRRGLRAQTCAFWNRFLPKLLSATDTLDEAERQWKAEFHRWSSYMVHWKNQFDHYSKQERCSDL
Description: Inhibitory concentration against rat cortex Acetylcholinesterase

Butyrylcholinesterase = Butyrylcholinesterase (Rattus norvegicus, UniProt Q9JKC1)
Sequence of Butyrylcholinesterase (Q9JKC1 whole entry): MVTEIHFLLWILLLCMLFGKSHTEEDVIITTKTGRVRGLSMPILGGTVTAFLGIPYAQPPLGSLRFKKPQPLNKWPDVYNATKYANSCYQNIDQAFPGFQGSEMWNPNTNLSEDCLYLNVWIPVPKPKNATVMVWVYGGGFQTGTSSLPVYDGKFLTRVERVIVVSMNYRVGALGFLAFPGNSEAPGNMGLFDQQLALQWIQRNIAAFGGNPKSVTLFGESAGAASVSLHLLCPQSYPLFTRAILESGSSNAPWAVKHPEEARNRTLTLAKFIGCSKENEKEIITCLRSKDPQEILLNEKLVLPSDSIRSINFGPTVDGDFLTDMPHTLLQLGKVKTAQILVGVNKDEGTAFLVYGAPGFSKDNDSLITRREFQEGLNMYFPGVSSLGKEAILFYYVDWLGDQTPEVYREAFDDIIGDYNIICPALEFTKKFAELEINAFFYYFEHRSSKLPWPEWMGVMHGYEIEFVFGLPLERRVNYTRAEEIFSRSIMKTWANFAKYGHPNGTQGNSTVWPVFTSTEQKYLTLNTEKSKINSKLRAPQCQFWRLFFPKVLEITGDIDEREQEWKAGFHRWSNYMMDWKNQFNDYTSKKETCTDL
Description: Inhibitory concentration against rat serum Butyrylcholinesterase

Compound | pIC50 (Acetylcholinesterase) | pIC50 (Butyrylcholinesterase)
O=C(CNC1CCc2ccccc21)NCCC1CCN(Cc2ccccc2)CC1 (stereo not drawn) | 6.64 | 5.16
O=C(CNc1c2c(nc3ccccc13)CCCC2)NCCC1CCN(c2ccccc2)CC1 | 8.22 | 7.12
O=C(CNC1c2ccccc2-c2[nH]c3ccccc3c21)NCCC1CCN(Cc2ccccc2)CC1 (stereo not drawn) | – | 4.75
O=C(CNc1c2c(nc3ccccc13)CCCC2)NCC1CCN(c2ccccc2)CC1 | – | 7.91
COc1ccc(C(=O)NCC(=O)NCCC2CCN(Cc3ccccc3)CC2)cc1OC | 6.18 | 4.72
